Measured values published in patent US8796324B2, “Substituted 2-acetamido-5-aryl-1,2,4-triazolones and use thereof” (Bayer Intellectual Property GmbH, priority 2009, dated 2014).
pIC50: −log10 of the molar value.

Key:
[1] = molecular target: T1, human V1a receptor (Homo sapiens, UniProt P37288); assay: Cellular in vitro assay for determining the vasopressin receptor activity (aequorin luminescence); format: cell-based; conditions: CHO cell line transfected with the human V1a receptor; agonist [Arg8]-vasopressin; read-out: IC50 hV1a
T1 construct: expressed in transfected cells; host or cells: CHO K1 (constitutively expressing modified aequorin)
Description: (§1) B-1. Cellular In Vitro Assay for Determining the Vasopressin Receptor Activity
(§2) The identification of agonists and antagonists of the V1a and V2 vasopressin receptors from humans and rats and also the quantification of the activity of the substances described here took place using recombinant cell lines. These cells derive originally from a hamster ovary epithelial cell (Chinese Hamster Ovary, CHO K1, ATCC: American Type Culture Collection, Manassas, Va. 20108, USA). The test cell lines constitutively express a modified form of the calcium-sensitive photoprotein aequorin, which, after reconstitution with the cofactor coelenterazine, emits light when there are increases in the free calcium concentration (Rizzuto R., Simpson A. W., Brini M., Pozzan T.; Nature 358 (1992) 325-327). In addition, the cells are stably transfected with the human or rat V1a or V2 receptors. In the case of the Gs-coupling V2 receptors, the cells are stably transfected with a further gene, which codes for the promiscuous Gα16 protein (Amatruda T. T., Steele D. A., Slepak V. Z., Simon M. I., Proc. Nat. Acad. Sci. USA 88 (1991), 5587-5591), either independently or as a fusion gene. The resulting vasopressin receptor test cells react to stimulation of the recombinantly expressed vasopressin receptors by intracellular release of calcium ions, which can be quantified by the resulting aequorin luminescence using a suitable luminometer (Milligan G., Marshall F., Rees S., Trends in Pharmaco. Sci. 17 (1996) 235-237).
(§3) On the day before the assay, the cells are plated out in culture medium (DMEM, 10% FCS, 2 mM glutamine, 10 mM HEPES) in 384-well microtiter plates and kept in a cell incubator (96% humidity, 5% v/v carbon dioxide, 37° C.). On the day of the assay, the culture medium is replaced by a Tyrode solution (140 mM sodium chloride, 5 mM potassium chloride, 1 mM magnesium chloride, 2 mM calcium chloride, 20 mM glucose, 20 mM HEPES), which additionally contains the cofactor coelenterazine (50 μM), and the microtiter plate is then incubated for a further 3-4 hours. The test substances in various concentrations are placed for 10 to 20 minutes in the wells of the microtiter plate before the agonist [Arg8]-vasopressin is added, and the resulting light signal is measured immediately in the luminometer. The IC50 values are calculated using the GraphPad PRISM computer program (Version 3.02).
(§4) The table below lists representative IC50 values for the compounds of the invention on the cell line transfected with the human V1a or V2 receptor: […]

[2] = molecular target: T2, human V2 receptor (Homo sapiens, UniProt P30518); assay: as above; format: cell-based; conditions: CHO cell line transfected with the human V2 receptor (and Gα16); agonist [Arg8]-vasopressin; read-out: IC50 hV2
T2 construct: expressed in transfected cells; host or cells: CHO K1 (constitutively expressing modified aequorin; co-transfected with promiscuous G-alpha-16)
Description: as §1, §2, §3, §4

T2 sequence (P30518 whole entry): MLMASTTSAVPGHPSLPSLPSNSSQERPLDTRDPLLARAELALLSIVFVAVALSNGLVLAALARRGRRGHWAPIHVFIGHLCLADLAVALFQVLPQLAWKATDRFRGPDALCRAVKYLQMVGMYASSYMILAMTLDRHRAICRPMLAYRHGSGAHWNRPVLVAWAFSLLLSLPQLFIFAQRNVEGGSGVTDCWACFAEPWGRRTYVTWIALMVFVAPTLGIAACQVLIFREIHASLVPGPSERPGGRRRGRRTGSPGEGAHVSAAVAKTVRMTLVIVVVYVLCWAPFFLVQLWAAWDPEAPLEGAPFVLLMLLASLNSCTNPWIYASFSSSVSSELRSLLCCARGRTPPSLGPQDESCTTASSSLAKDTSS
T1 sequence (P37288 whole entry): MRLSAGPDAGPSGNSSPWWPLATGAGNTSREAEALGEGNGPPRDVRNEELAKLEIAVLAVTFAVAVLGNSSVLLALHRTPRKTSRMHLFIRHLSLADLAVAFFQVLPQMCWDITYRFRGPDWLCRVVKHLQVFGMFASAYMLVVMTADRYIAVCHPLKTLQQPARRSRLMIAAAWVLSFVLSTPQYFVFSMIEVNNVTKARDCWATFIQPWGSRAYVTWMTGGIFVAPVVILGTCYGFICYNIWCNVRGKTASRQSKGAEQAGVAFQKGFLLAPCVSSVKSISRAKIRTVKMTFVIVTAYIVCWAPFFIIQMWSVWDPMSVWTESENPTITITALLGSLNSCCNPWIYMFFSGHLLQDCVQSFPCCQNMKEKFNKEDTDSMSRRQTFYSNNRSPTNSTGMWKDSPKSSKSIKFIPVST

CS(=O)(=O)NCC(NC(=O)Cn1nc(-c2ccc(Cl)cc2)n(C[C@H](O)C(F)(F)F)c1=O)c1cccc(C(F)(F)F)c1 (single isomer, unassigned; diastereomer ii) [Example 24]
pIC50 [1]: 8.35
pIC50 [2]: 8.89

CCS(=O)(=O)NCC(NC(=O)Cn1nc(-c2ccc(Cl)cc2)n(C[C@H](O)C(F)(F)F)c1=O)c1cccc(Cl)c1Cl (single isomer, unassigned; diastereomer ii) [Example 34]
pIC50 [1]: 8.52
pIC50 [2]: 8.82

NC(=O)NCC(NC(=O)Cn1nc(-c2ccc(Cl)cc2)n(C[C@H](O)C(F)(F)F)c1=O)c1cccc(C(F)(F)F)c1 (single isomer, unassigned) [Example 57]
pIC50 [1]: 8.54
pIC50 [2]: 8.66

CSCC(NC(=O)Cn1nc(-c2ccc(Cl)cc2)n(C[C@H](O)C(F)(F)F)c1=O)c1ccccc1C(F)(F)F (single isomer, unassigned) [Example 156]
pIC50 [1]: 8.72
pIC50 [2]: 8.00

NC(=O)OCC(NC(=O)Cn1nc(-c2ccc(Cl)cc2)n(CCC(F)(F)F)c1=O)c1cccc(C(F)(F)F)c1 (single isomer, unassigned) [Example 112, 2-({[3-(4-Chlorophenyl)-5-oxo-4-(3,3,3-trifluoropropyl)-4,5-dihydro-1H-1,2,4-triazol-1-yl]acetyl}amino)-2-[3-(trifluoromethyl)phenyl]ethyl carbamate]
pIC50 [1]: 8.62
pIC50 [2]: 8.22

CS(=O)(=O)NCC(NC(=O)Cn1nc(-c2ccc(Cl)cc2)n(C[C@H](O)C(F)(F)F)c1=O)c1ccccc1Cl (single isomer, unassigned) [Example 126]
pIC50 [1]: 8.74
pIC50 [2]: 8.74
